Measured values as given in patent publication US4069223A, “4-Aminomethyl-1-(3,3,3-triarylpropyl)-4-arylpiperidine and derivatives thereof” (G. D. Searle & Co., priority 1977, dated 1978).

Columns and labels:
mouse = test: Tail clip test (analgesic effect); type: in vivo; conditions: 100 mpk, intragastric
Description: The assessment of the analgesic effect of the present compounds was conducted in the tail clip test.
A specific clip is applied to the base of the tail of the mouse (adult male weighing 18-25 grams) and the time for the animal to turn around to bite at it is measured. The sensitivity of each mouse is determined one-half hour prior to drug administration. Only those mice attempting to bite the clip are included in the experiment. The test compound is then administered intragastrically and the response to placement of the clip is determined at 30, 60, 90 and 120 minutes after treatment. A response is considered positive if the animal takes more than 2 times the pre-drug time to bite at the clip at any of these time intervals. A test compound is considered active when 50 percent or more of the animals used show a positive response.

[1] = test system: castor oil induced diarrhea; test: Castor oil induced diarrhea in the rat; type: in vivo, Charles River male rats; conditions: for ED50: Rattus norvegicus, po, 1 hour before castor oil; for Potency: relative to diphenoxylate hydrochloride
Description: Adult Charles River male rats were fasted in community cages for 24 hours prior to the test, with free access to water. The compound was administered intragastrically (suspended on 0.5% methycellulose) one hour prior to the administration of castor oil at the dose of 1.0 ml/rat intragastrically. The rats were then observed for the presence or absence of diarrhea, at hourly intervals for up to 8 hours past administration of castor oil. The median effective dose values at each hourly interval were calculated for the compound using the method of Berkson (1953). […] For example:
Comparative Oral Antidiarrheal Potency and Duration of 4-aminomethyl-1-1-(3,3,3-triphenylpropyl)-4-phenylpiperidine hydrochloride (Compound A) to Diphenoxylate hydrochloride in Rat Castor Oil Diarrhea Test.

## Cl.NCC1(c2ccccc2)CCN(CCC(c2ccccc2)(c2ccccc2)c2ccccc2)CC1 [Compound A, 4-aminomethyl-1-(3,3,3-triphenylpropyl)-4-phenylpiperidine hydrochloride]
mouse
  analgesic effect: weak analgesic effect
[1]; 2 hours after castor oil, intragastric
  ED50: 3.53 mg/kg
[1]; 3 hours after castor oil, intragastric
  ED50: 4.24 mg/kg
[1]; 4 hours after castor oil, intragastric
  ED50: 5.4 mg/kg
[1]; 5 hours after castor oil, intragastric
  ED50: 5.58 mg/kg
[1]; 6 hours after castor oil, intragastric
  ED50: 5.79 mg/kg
[1]; 7 hours after castor oil, intragastric
  ED50: 7.48 mg/kg
[1]; 8 hours after castor oil, intragastric
  ED50: 7.48 mg/kg
[1]; rat castor oil test, intragastric
  inhibition of gastrointestinal motility: found to inhibit gastrointestinal motility
[1]; 2 hours after castor oil
  Potency: 0.06
[1]; 3 hours after castor oil
  Potency: 0.11
[1]; 4 hours after castor oil
  Potency: 0.16
[1]; 5 hours after castor oil
  Potency: 0.24
[1]; 6 hours after castor oil
  Potency: 0.29
[1]; 7 hours after castor oil
  Potency: 0.25
[1]; 8 hours after castor oil
  Potency: 0.26
